The values below come from patent US20160002204A1 (Board of Regents, The University of Texas System, priority 2014, published 2016).

A value given as a limit tells only on which side of the number the result lay.

Test [1] deals with A549 cells. Nature of the test: A549 proliferation (viability) assay, Cell Titer Fluor, 72 hours. Conditions: Homo sapiens. The test is classed as cell-based. The procedure, abridged: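 Compound was added to A549 cells (1000/well, pre-grown 24 h in RPMI 1640 plus 10% dialyzed FBS) at 0.5% DMSO and left 72 h under 37 °C, 5% CO2, ambient O2. Live-cell fluorescence (Cell Titer Fluor) gave the EC50.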

Test [2] concerns the target T1, GLS1 (purified recombinant human GAC) (Homo sapiens, UniProt O94925).
T1 sequence (O94925 55-598 isoform O94925-3 limits assumed): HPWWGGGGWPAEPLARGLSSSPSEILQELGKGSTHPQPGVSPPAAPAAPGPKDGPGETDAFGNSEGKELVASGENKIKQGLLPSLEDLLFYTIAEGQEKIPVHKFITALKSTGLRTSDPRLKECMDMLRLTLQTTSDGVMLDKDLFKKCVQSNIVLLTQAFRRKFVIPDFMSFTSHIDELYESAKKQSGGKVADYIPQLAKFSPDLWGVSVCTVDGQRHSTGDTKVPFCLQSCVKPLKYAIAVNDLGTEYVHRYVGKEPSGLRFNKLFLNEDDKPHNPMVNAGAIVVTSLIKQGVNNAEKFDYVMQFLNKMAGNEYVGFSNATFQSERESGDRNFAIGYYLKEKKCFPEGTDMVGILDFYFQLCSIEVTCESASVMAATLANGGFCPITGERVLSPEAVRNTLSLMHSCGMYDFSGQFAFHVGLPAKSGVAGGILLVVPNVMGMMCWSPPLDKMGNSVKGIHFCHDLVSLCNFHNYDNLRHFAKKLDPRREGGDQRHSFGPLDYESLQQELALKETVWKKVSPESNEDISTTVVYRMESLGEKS
Nature of the test: GLS1 enzymatic activity assay (dual-coupled, Amplex UltraRed/resorufin). The test is classed as biochemical. The essentials: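 GAC activity measured by coupling glutamate to glutamate oxidase and HRP, generating resorufin from Amplex UltraRed. Enzyme (2 nM) preincubated with 50 mM potassium phosphate 10 min at room temperature, then inhibitor 10 min; 1 mM glutamine substrate, 1% DMSO. Fluorescence 530/590 nm, kinetic or 20-min endpoint; IC50 from four-parameter logistic fit.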

Take `O=C(Nc1ccn(CCC(F)Cn2cc(C(=O)NCc3cc(OC(F)(F)F)ccc3F)nn2)c(=O)c1F)C(=O)N1CCCCC1` (stereo not drawn) [Example 422, 11-(2-fluoro-4-(3-fluoro-2-oxo-4-(2-oxo-2-(piperidin-1-yl)acetamido)pyridin-1(2H)-yl)butyl)-N-(2-fluoro-5-(trifluoromethoxy)benzyl)-1H-1,2,3-triazole-4-carboxamide]: the EC50 – broadly, the concentration that produces a half-maximal response – in test [1] is less than 100 nM. Besides, in test [2], the IC50 (commonly the midpoint of a concentration-inhibition curve) is less than 100 nM.

In test [1], `CC(C)COC(=O)Nc1ccn(CCC(F)Cn2cc(C(=O)NCc3cc(C(F)(F)F)ccn3)nn2)c(=O)n1` (stereo not drawn) [Example 490, 2-methylpropyl N-(1-{3-fluoro-4-[4-({[4-(trifluoromethyl)pyridin-2-yl]methyl}carbamoyl)-1H-1,2,3-triazol-1-yl]butyl}-2-oxo-1,2-dihydropyrimidin-4-yl)carbamate] showed an EC50 of 100 to 500 nM. Also, the IC50 in test [2] is less than 100 nM.

In test [1], `O=C(Cc1cccs1)Nc1ccn(CCCCn2cc(C(=O)NCc3cccc(OC(F)(F)F)c3)nn2)c(=O)c1` [Example 202, 1-(4-{2-oxo-4-[2-(thiophen-2-yl)acetamido]-1,2-dihydropyridin-1-yl}butyl)-N-{[3-(trifluoromethoxy)phenyl]methyl}-1H-1,2,3-triazole-4-carboxamide] displayed an EC50 of 100 to 500 nM. Besides, the IC50 in test [2] is less than 100 nM.

Consider `CC(C)(C)OC(=O)N1CCN(CC(=O)Nc2ccn(CCC(F)Cn3cc(C(=O)NCc4cccc(OC(F)(F)F)c4)nn3)c(=O)c2F)CC1` (stereo not drawn) [Example 296, tert-butyl 4-{[(3-fluoro-1-{3-fluoro-4-[4-({[3-(trifluoro-methoxy)phenyl]methyl}carbamoyl)-1H-1,2,3-triazol-1-yl]butyl}-2-oxo-1,2-dihydropyridin-4-yl)carbamoyl]methyl}piperazine-1-carboxylate], for which the concentration giving a half-maximal response (EC50) in test [1] was less than 100 nM. In test [2], the IC50 was less than 100 nM.

In test [1], `O=C(NCc1cccc(OC(F)(F)F)c1)c1cn(CC(F)CCn2ccc(COc3cccc(Cl)c3)cc2=O)nn1` (stereo not drawn) [Example 475, 1-{4-[4-(3-chlorophenoxymethyl)-2-oxo-1,2-dihydropyridin-1-yl]-2-fluorobutyl}-N-{[3-(trifluoromethoxy)phenyl]methyl}-1H-1,2,3-triazole-4-carboxamide] had an EC50 of 500 to 5000 nM. Further, in test [2], the IC50 was less than 100 nM.

Consider `O=C(CC1CCCCC1)Nc1ccn(CCCCc2nnc(C(=O)NCc3ncccc3F)s2)c(=O)c1` [Example 455, 5-{4-[4-(2-cyclohexylacetamido)-2-oxo-1,2-dihydropyridin-1-yl]butyl}-N-[(3-fluoropyridin-2-yl)methyl]-1,3,4-thiadiazole-2-carboxamide], for which, in test [1], the EC50 is less than 100 nM. Moreover, in test [2], the IC50 was less than 100 nM.

In test [1], `O=C(Cc1ccccc1)Nc1ccn(CCC(F)Cn2cc(C(=O)NCc3cc(C(F)(F)F)ccn3)nn2)c(=O)c1F` (stereo not drawn) [Example 323, 1-{2-fluoro-4-[3-fluoro-2-oxo-4-(2-phenylacetamido)-1,2-dihydropyridin-1-yl]butyl}-N-{[4-(trifluoromethyl)pyridin-2-yl]methyl}-1H-1,2,3-triazole-4-carboxamide] came in with an EC50 of less than 100 nM. Moreover, the concentration for half-maximal inhibition (IC50) in test [2] is less than 100 nM.

`CC(=O)Nc1ccn(CCCCc2ccc(NC(=O)Cc3ccccc3)nn2)c(=O)n1` [Example 92, N-{6-[4-(4-acetamido-2-oxo-1,2-dihydropyrimidin-1-yl)butyl]pyridazin-3-yl}-2-phenylacetamide] registered an EC50 in test [1] of 500 to 5000 nM. Moreover, the IC50 in test [2] was less than 100 nM.

In turn, `O=C(Cc1cccc(OC(F)(F)F)c1)Nc1ccc(CCCCn2ccc(NC(=O)OC3CCCCC3)nc2=O)nn1` [Example 103, cyclohexyl N-{2-oxo-1-[4-(6-{2-[3-(trifluoromethoxy)phenyl]acetamido}pyridazin-3-yl)butyl]-1,2-dihydropyrimidin-4-yl}carbamate] showed an EC50 in test [1] of less than 100 nM. The IC50 in test [2] is less than 100 nM.

In turn, `O=C(Cc1ccccc1)Nc1ccn(CCC(F)Cn2cc(C(=O)NCc3ccc(OC(F)(F)F)cn3)nn2)c(=O)c1F` (stereo not drawn) [Example 409, 1-{2-fluoro-4-[3-fluoro-2-oxo-4-(2-phenylacetamido)-1,2-dihydropyridin-1-yl]butyl}-N-{[5-(trifluoromethoxy)pyridin-2-yl]methyl}-1H-1,2,3-triazole-4-carboxamide] returned an EC50 in test [1] of less than 100 nM. Moreover, in test [2], the IC50 is less than 100 nM.

In turn, `CO[C@H](C(=O)Nc1ccn(CCC(F)Cn2cc(C(=O)NCc3cccc(OC(F)(F)F)c3)nn2)c(=O)c1)c1ccccc1` (stereo partly drawn) [Example 184, 1-(2-fluoro-4-{4-[(2S)-2-methoxy-2-phenylacetamido]-2-oxo-1,2-dihydropyridin-1-yl}butyl)-N-{[3-(trifluoromethoxy)phenyl]methyl}-1H-1,2,3-triazole-4-carboxamide] showed an EC50 in test [1] of less than 100 nM. For the same compound, the IC50 in test [2] was less than 100 nM.

Consider `CO[C@H](C(=O)Nc1ccn(CC(F)CCn2cc(C(=O)NCc3cccc(OC(F)(F)F)c3)nn2)c(=O)c1F)c1ccccc1` (stereo partly drawn) [Example 309, 1-(3-fluoro-4-{3-fluoro-4-[(2S)-2-methoxy-2-phenylacetamido]-2-oxo-1,2-dihydropyridin-1-yl}butyl)-N-{[3-(trifluoromethoxy)phenyl]methyl}-1H-1,2,3-triazole-4-carboxamide], for which the EC50 in test [1] lay within 500 to 5000 nM. In addition, in test [2], the half-inhibitory concentration (IC50) lay in the range of 500 to 5000 nM.

For the compound `O=C(CN1CCN(C(=O)CC(F)(F)F)CC1)Nc1ccn(CCC(F)Cn2cc(C(=O)NCc3cccc(OC(F)(F)F)c3)nn2)c(=O)c1F` (stereo not drawn) [Example 308, 1-[2-fluoro-4-(3-fluoro-2-oxo-4-{2-[4-(3,3,3-trifluoropropanoyl)piperazin-1-yl]acetamido}-1,2-dihydropyridin-1-yl)butyl]-N-{[3-(trifluoromethoxy)phenyl]methyl}-1H-1,2,3-triazole-4-carboxamide], in test [1], the EC50 fell in the range of 100 to 500 nM. In addition, the IC50 in test [2] was less than 100 nM.

In turn, `CC(C)NC(=O)Nc1ccn(CCCCc2ccc(NC(=O)Cc3cccc(OC(F)(F)F)c3)nn2)c(=O)n1` [Example 106, N-{6-[4-(2-oxo-4-{[(propan-2-yl)carbamoyl]amino}-1,2-dihydropyrimidin-1-yl)butyl]pyridazin-3-yl}-2-[3-(trifluoromethoxy)phenyl]acetamide] came in with an EC50 in test [1] of 500 to 5000 nM. Moreover, the IC50 in test [2] was in the range of 100 to 500 nM.

The compound `O=C(Nc1ccn(CCC(F)Cn2cc(C(=O)NCc3cccc(OC(F)(F)F)c3)nn2)c(=O)n1)OC1CCCCC1` (stereo not drawn) [Example 383, cyclohexyl N-(1-{3-fluoro-4-[4-({[3-(trifluoromethoxy)phenyl]methyl}carbamoyl)-1H-1,2,3-triazol-1-yl]butyl}-2-oxo-1,2-dihydropyrimidin-4-yl)carbamate] displayed an EC50 in test [1] of less than 100 nM. Moreover, the half-inhibitory concentration (IC50) in test [2] was less than 100 nM.

The compound `O=C(Nc1ccn(CCC(F)Cn2cc(C(=O)NCc3ccccn3)nn2)c(=O)c1F)C(=O)N1CCCCC1` (stereo not drawn) [Example 427, 1-(2-fluoro-4-{3-fluoro-2-oxo-4-[2-oxo-2-(piperidin-1-yl)acetamido]-1,2-dihydropyridin-1-yl}butyl)-N-(pyridin-2-ylmethyl)-1H-1,2,3-triazole-4-carboxamide] had an EC50 in test [1] of 500 to 5000 nM. In addition, the IC50 in test [2] lay in the range of 500 to 5000 nM.

In test [1], `Cc1ccc(CNC(=O)c2nnc(CCCCn3ccc(NC(=O)CC4CCC4)c(F)c3=O)s2)cn1` [Example 464, 5-(4-(4-(2-cyclobutylacetamido)-3-fluoro-2-oxopyridin-1(2H)-yl)butyl)-N-((6-methylpyridin-3-yl)methyl)-1,3,4-thiadiazole-2-carboxamide] returned a concentration giving a half-maximal response (EC50) of less than 100 nM. In test [2], the IC50 is less than 100 nM.

For the compound `O=C(Cc1ccccn1)Nc1ccn(CCC(F)Cn2cc(C(=O)NCc3cccc(C(F)(F)F)c3)nn2)c(=O)c1` (stereo not drawn) [Example 183, 1-(2-fluoro-4-{2-oxo-4-[2-(pyridin-2-yl)acetamido]-1,2-dihydropyridin-1-yl}butyl)-N-{[3-(trifluoromethyl)phenyl]methyl}-1H-1,2,3-triazole-4-carboxamide], the EC50 in test [1] fell in the range of 500 to 5000 nM. Also, in test [2], the IC50 was less than 100 nM.

`O=C(Cc1cccc(OC(F)(F)F)c1)Nc1ccc(CCCCn2ccc(NC(=O)Cc3ccccc3)nc2=O)nn1` [Example 75, N-{2-oxo-1-[4-(6-{2-[3-(trifluoro-methoxy)phenyl]acetamido}pyridazin-3-yl)butyl]-1,2-dihydropyrimidin-4-yl}-2-phenylacetamide]: the EC50 in test [1] was less than 100 nM. Also, in test [2], the IC50 was less than 100 nM.

In turn, `O=C(Cc1cccc(OC(F)(F)F)c1)Nc1ccc(CCCCn2ccc(NC(=O)OCc3ccccc3)nc2=O)nn1` [Example 24, Benzyl(2-oxo-1-(4-(6-(2-(3-(trifluoromethoxy)phenyl)acetamido)pyridazin-3-yl)butyl)-1,2-dihydropyrimidin-4-yl)carbamate] registered an EC50 in test [1] of less than 100 nM. For the same compound, the IC50 in test [2] is less than 100 nM.

`O=C(NCc1cc(C(F)(F)F)ccn1)c1cn(CC(F)CCn2ccc(COc3ccccc3F)cc2=O)nn1` (stereo not drawn) [Example 487, 1-{2-fluoro-4-[4-(2-fluorophenoxymethyl)-2-oxo-1,2-dihydropyridin-1-yl]butyl}-N-{[4-(trifluoromethyl)pyridin-2-yl]methyl}-1H-1,2,3-triazole-4-carboxamide]: the EC50 in test [1] fell in the range of 100 to 500 nM. The IC50 in test [2] lay within 100 to 500 nM.
